Measurements published in ChEMBL document CHEMBL5724914, “Linking interpersonal differences in gut microbiota composition and drug biotransformation activity” (2024).

Conditions: human gut metagenome, 24 h, 2 µM
Further: call rule not given here.

| Bacterial Biotransformation | SMILES |
| --- | --- |
| Compound metabolized | NC(=O)N1c2ccccc2CC(=O)c2ccccc21 [OXCARBAZEPINE] |
| Compound metabolized | COC1=CC(=O)C[C@@H](C)[C@]12Oc1c(Cl)c(OC)cc(OC)c1C2=O [GRISEOFULVIN] |

Experiment: (§1) The drug is tested on Z-005 corresponding to metagenome with ENA study accession number: PRJEB37062 and ENA sample accession number: ERS12561805 for biotransformation under anaerobic condition. The drug concentrations were measured over 9 timepoints collected between 0 and 24 hours of incubation by liquid-chromatography-coupled mass spectrometry (LC–MS)
Conditions: 2 µM

| Bacterial Biotransformation | SMILES |
| --- | --- |
| Compound metabolized | NC(=O)N1c2ccccc2CC(=O)c2ccccc21 [OXCARBAZEPINE] |
| Compound metabolized | COC1=CC(=O)C[C@@H](C)[C@]12Oc1c(Cl)c(OC)cc(OC)c1C2=O [GRISEOFULVIN] |

Conditions: human gut metagenome, 24 h, 2 µM
Remark: another data set of the same source

| Bacterial Biotransformation | SMILES |
| --- | --- |
| Compound NOT metabolized | NC(=O)N1c2ccccc2CC(=O)c2ccccc21 [OXCARBAZEPINE] |
| Compound metabolized | COC1=CC(=O)C[C@@H](C)[C@]12Oc1c(Cl)c(OC)cc(OC)c1C2=O [GRISEOFULVIN] |

Experiment: (§2) The drug is tested on Z-018 corresponding to pig gut metagenome with ENA study accession number: PRJEB37062 and ENA sample accession number: ERS12561817 for biotransformation under anaerobic condition. The drug concentrations were measured over 9 timepoints collected between 0 and 24 hours of incubation by liquid-chromatography-coupled mass spectrometry (LC–MS)
Conditions: 2 µM

| Bacterial Biotransformation | SMILES |
| --- | --- |
| Compound metabolized | NC(=O)N1c2ccccc2CC(=O)c2ccccc21 [OXCARBAZEPINE] |
| Compound metabolized | COC1=CC(=O)C[C@@H](C)[C@]12Oc1c(Cl)c(OC)cc(OC)c1C2=O [GRISEOFULVIN] |

Conditions: human gut metagenome, 24 h, 2 µM
Remark: another data set of the same source

| Bacterial Biotransformation | SMILES |
| --- | --- |
| Compound NOT metabolized | NC(=O)N1c2ccccc2CC(=O)c2ccccc21 [OXCARBAZEPINE] |
| Compound metabolized | COC1=CC(=O)C[C@@H](C)[C@]12Oc1c(Cl)c(OC)cc(OC)c1C2=O [GRISEOFULVIN] |

Conditions: human gut metagenome, 24 h, 2 µM
Remark: another data set of the same source

| Bacterial Biotransformation | SMILES |
| --- | --- |
| Compound NOT metabolized | NC(=O)N1c2ccccc2CC(=O)c2ccccc21 [OXCARBAZEPINE] |
| Compound metabolized | COC1=CC(=O)C[C@@H](C)[C@]12Oc1c(Cl)c(OC)cc(OC)c1C2=O [GRISEOFULVIN] |

Experiment: as §2, with “Z-007” for “Z-018”, “rat” for “pig”, “ERS12561807” for “ERS12561817”
Conditions: 2 µM

| Bacterial Biotransformation | SMILES |
| --- | --- |
| Compound NOT metabolized | NC(=O)N1c2ccccc2CC(=O)c2ccccc21 [OXCARBAZEPINE] |
| Compound metabolized | COC1=CC(=O)C[C@@H](C)[C@]12Oc1c(Cl)c(OC)cc(OC)c1C2=O [GRISEOFULVIN] |

Experiment: as §2, with “WLS-240” for “Z-018”, “human” for “pig”, “ERS12561773” for “ERS12561817”
Conditions: 2 µM

| Bacterial Biotransformation | SMILES |
| --- | --- |
| Compound NOT metabolized | NC(=O)N1c2ccccc2CC(=O)c2ccccc21 [OXCARBAZEPINE] |
| Compound metabolized | COC1=CC(=O)C[C@@H](C)[C@]12Oc1c(Cl)c(OC)cc(OC)c1C2=O [GRISEOFULVIN] |

Experiment: as §2, with “Z-003” for “Z-018”, “ERS12561803” for “ERS12561817”
Conditions: 2 µM

| Bacterial Biotransformation | SMILES |
| --- | --- |
| Compound metabolized | NC(=O)N1c2ccccc2CC(=O)c2ccccc21 [OXCARBAZEPINE] |
| Compound metabolized | COC1=CC(=O)C[C@@H](C)[C@]12Oc1c(Cl)c(OC)cc(OC)c1C2=O [GRISEOFULVIN] |

Conditions: human gut metagenome, 24 h, 2 µM
Remark: another data set of the same source

| Bacterial Biotransformation | SMILES |
| --- | --- |
| Compound NOT metabolized | NC(=O)N1c2ccccc2CC(=O)c2ccccc21 [OXCARBAZEPINE] |
| Compound metabolized | COC1=CC(=O)C[C@@H](C)[C@]12Oc1c(Cl)c(OC)cc(OC)c1C2=O [GRISEOFULVIN] |

Experiment: as §1, with “Z-012” for “Z-005”, “ERS12561812” for “ERS12561805”
Conditions: 2 µM

| Bacterial Biotransformation | SMILES |
| --- | --- |
| Compound NOT metabolized | NC(=O)N1c2ccccc2CC(=O)c2ccccc21 [OXCARBAZEPINE] |
| Compound metabolized | COC1=CC(=O)C[C@@H](C)[C@]12Oc1c(Cl)c(OC)cc(OC)c1C2=O [GRISEOFULVIN] |

Conditions: human gut metagenome, 24 h, 2 µM
Remark: another data set of the same source

| Bacterial Biotransformation | SMILES |
| --- | --- |
| Compound NOT metabolized | NC(=O)N1c2ccccc2CC(=O)c2ccccc21 [OXCARBAZEPINE] |
| Compound metabolized | COC1=CC(=O)C[C@@H](C)[C@]12Oc1c(Cl)c(OC)cc(OC)c1C2=O [GRISEOFULVIN] |

Experiment: as §2, with “Z-029” for “Z-018”, “rat” for “pig”, “ERS12561828” for “ERS12561817”
Conditions: 2 µM

| Bacterial Biotransformation | SMILES |
| --- | --- |
| Compound NOT metabolized | NC(=O)N1c2ccccc2CC(=O)c2ccccc21 [OXCARBAZEPINE] |
| Compound NOT metabolized | COC1=CC(=O)C[C@@H](C)[C@]12Oc1c(Cl)c(OC)cc(OC)c1C2=O [GRISEOFULVIN] |

Conditions: human gut metagenome, 24 h, 2 µM
Remark: another data set of the same source

| Bacterial Biotransformation | SMILES |
| --- | --- |
| Compound NOT metabolized | NC(=O)N1c2ccccc2CC(=O)c2ccccc21 [OXCARBAZEPINE] |
| Compound metabolized | COC1=CC(=O)C[C@@H](C)[C@]12Oc1c(Cl)c(OC)cc(OC)c1C2=O [GRISEOFULVIN] |

Experiment: as §2, with “WLS-082” for “Z-018”, “human” for “pig”, “ERS12561751” for “ERS12561817”
Conditions: 2 µM

| Bacterial Biotransformation | SMILES |
| --- | --- |
| Compound NOT metabolized | NC(=O)N1c2ccccc2CC(=O)c2ccccc21 [OXCARBAZEPINE] |
| Compound metabolized | COC1=CC(=O)C[C@@H](C)[C@]12Oc1c(Cl)c(OC)cc(OC)c1C2=O [GRISEOFULVIN] |

Conditions: human gut metagenome, 24 h, 2 µM
Remark: another data set of the same source

| Bacterial Biotransformation | SMILES |
| --- | --- |
| Compound NOT metabolized | NC(=O)N1c2ccccc2CC(=O)c2ccccc21 [OXCARBAZEPINE] |
| Compound metabolized | COC1=CC(=O)C[C@@H](C)[C@]12Oc1c(Cl)c(OC)cc(OC)c1C2=O [GRISEOFULVIN] |

Conditions: human gut metagenome, 24 h, 2 µM
Remark: another data set of the same source

| Bacterial Biotransformation | SMILES |
| --- | --- |
| Compound metabolized | NC(=O)N1c2ccccc2CC(=O)c2ccccc21 [OXCARBAZEPINE] |
| Compound metabolized | COC1=CC(=O)C[C@@H](C)[C@]12Oc1c(Cl)c(OC)cc(OC)c1C2=O [GRISEOFULVIN] |

Conditions: human gut metagenome, 24 h, 2 µM
Remark: another data set of the same source

| Bacterial Biotransformation | SMILES |
| --- | --- |
| Compound NOT metabolized | NC(=O)N1c2ccccc2CC(=O)c2ccccc21 [OXCARBAZEPINE] |
| Compound metabolized | COC1=CC(=O)C[C@@H](C)[C@]12Oc1c(Cl)c(OC)cc(OC)c1C2=O [GRISEOFULVIN] |

Conditions: human gut metagenome, 24 h, 2 µM
Remark: another data set of the same source

| Bacterial Biotransformation | SMILES |
| --- | --- |
| Compound NOT metabolized | NC(=O)N1c2ccccc2CC(=O)c2ccccc21 [OXCARBAZEPINE] |
| Compound metabolized | COC1=CC(=O)C[C@@H](C)[C@]12Oc1c(Cl)c(OC)cc(OC)c1C2=O [GRISEOFULVIN] |

Experiment: as §2, with “WLS-350” for “Z-018”, “human” for “pig”, “ERS12561789” for “ERS12561817”
Conditions: 2 µM

| Bacterial Biotransformation | SMILES |
| --- | --- |
| Compound metabolized | NC(=O)N1c2ccccc2CC(=O)c2ccccc21 [OXCARBAZEPINE] |
| Compound NOT metabolized | COC1=CC(=O)C[C@@H](C)[C@]12Oc1c(Cl)c(OC)cc(OC)c1C2=O [GRISEOFULVIN] |
